Results reported in ChEMBL document CHEMBL5126623, “Dual Targeting of Steroid Sulfatase and 17β-Hydroxysteroid Dehydrogenase Type 1 by a Novel Drug-Prodrug Approach: A Potential Therapeutic Option for the Treatment of Endometriosis” (J Med Chem, 2022).

Key:
Steryl-sulfatase [1] = target: T1, Steryl-sulfatase (Homo sapiens, UniProt P08842); test: Inhibition of STS in human T47D cells using [3H]E1S as substrate measured after 24 hrs by HPLC analysis; format: cell-based
T1 sequence (P08842 whole entry): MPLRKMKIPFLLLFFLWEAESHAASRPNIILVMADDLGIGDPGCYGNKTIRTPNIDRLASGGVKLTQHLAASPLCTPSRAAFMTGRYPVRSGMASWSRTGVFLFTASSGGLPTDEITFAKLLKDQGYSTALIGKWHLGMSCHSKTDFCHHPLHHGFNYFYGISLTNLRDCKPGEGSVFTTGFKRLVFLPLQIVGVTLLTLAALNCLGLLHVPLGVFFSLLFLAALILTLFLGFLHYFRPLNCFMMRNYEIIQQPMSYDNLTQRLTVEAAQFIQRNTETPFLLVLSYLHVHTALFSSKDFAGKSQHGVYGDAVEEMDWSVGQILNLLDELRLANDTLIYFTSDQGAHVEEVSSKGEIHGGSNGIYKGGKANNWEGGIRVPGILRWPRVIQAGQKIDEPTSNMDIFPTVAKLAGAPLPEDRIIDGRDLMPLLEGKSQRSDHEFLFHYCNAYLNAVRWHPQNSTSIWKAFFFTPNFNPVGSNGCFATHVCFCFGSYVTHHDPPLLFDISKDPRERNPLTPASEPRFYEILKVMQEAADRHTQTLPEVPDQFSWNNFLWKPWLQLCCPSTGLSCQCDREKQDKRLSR

[2] = Metabolic stability in mouse liver S9 fraction assessed as intrinsic clearance at 1 uM in presence of NADPH measured upto 60 min by LC-MS/MS analysis; format: ADME, subcellular; settings: s9, 1 h
[3] = Metabolic stability in human liver S9 fraction assessed as intrinsic clearance at 1 uM in presence of NADPH measured upto 60 min by LC-MS/MS analysis; format: ADME, subcellular; settings: s9, 1 h
[4] = Metabolic stability in mouse liver S9 fraction assessed as half life at 1 uM in presence of NADPH measured upto 60 min by LC-MS/MS analysis; format: ADME, subcellular
Steryl-sulfatase [5] = target: T1, Steryl-sulfatase; test: Irreversible inhibition of STS in human T47D cells using [3H]E1S as substrate measured after 24 hrs by HPLC analysis; format: cell-based
[6] = Metabolic stability in human liver S9 fraction assessed as half life at 1 uM in presence of NADPH measured upto 60 min by LC-MS/MS analysis; format: ADME, subcellular
[7] = target: T2, 17-beta-hydroxysteroid dehydrogenase type 2 (Homo sapiens, UniProt P37059); test: Inhibition of human placental microsomal fraction 17beta-HS2 using [3H]-E2 as substrate in presence of NAD+ measured after 10 mins by HPLC method; format: subcellular, Placenta, Microsome
T2 sequence (P37059 whole entry): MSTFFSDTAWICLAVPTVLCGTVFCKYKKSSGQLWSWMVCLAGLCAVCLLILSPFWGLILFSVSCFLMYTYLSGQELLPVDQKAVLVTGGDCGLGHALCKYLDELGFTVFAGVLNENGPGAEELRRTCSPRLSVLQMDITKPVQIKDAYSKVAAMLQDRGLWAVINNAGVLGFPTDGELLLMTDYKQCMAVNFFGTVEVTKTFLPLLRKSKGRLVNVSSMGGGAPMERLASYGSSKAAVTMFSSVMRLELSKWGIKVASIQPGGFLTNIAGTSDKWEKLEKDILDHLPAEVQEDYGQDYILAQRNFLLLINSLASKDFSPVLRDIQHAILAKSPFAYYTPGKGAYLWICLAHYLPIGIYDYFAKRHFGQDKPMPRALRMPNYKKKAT

[8] = target: T3, 17-beta-hydroxysteroid dehydrogenase type 1 (Homo sapiens, UniProt P14061); test: Inhibition of 17beta-HSD1 in human T47D cells using [3H]E1S as substrate measured after 24 hrs by HPLC analysis; format: cell-based
T3 sequence (P14061 whole entry): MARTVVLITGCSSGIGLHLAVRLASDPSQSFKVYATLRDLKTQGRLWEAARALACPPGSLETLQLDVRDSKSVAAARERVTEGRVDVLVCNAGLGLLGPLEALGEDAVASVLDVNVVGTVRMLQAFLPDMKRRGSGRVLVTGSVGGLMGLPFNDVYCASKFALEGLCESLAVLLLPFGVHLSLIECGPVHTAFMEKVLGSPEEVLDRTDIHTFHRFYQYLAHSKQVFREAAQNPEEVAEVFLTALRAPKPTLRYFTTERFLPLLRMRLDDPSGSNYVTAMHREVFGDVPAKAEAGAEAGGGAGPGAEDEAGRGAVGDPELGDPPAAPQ

[9] = target: T3, 17-beta-hydroxysteroid dehydrogenase type 1; test: Inhibition of human placental cytosolic fraction 17beta-HSD1 using [3H]-E1 as substrate in presence of NADH measured after 10 mins by HPLC method; format: subcellular, Placenta, Cytosol
Homo sapiens = species on record: Homo sapiens; test: Selectivity ratio of IC50 for human placental microsomal fraction 17beta-HSD2 to IC50 for human placental cytosolic fraction 17beta-HSD1
[10] = target: T4, 17-beta-hydroxysteroid dehydrogenase type 1 (Homo sapiens) (UniProt P14061); test: Inhibition of human 17beta-HSD1 at 50 nM using [3H]-E1 as substrate measured after 13.5 hrs in presence of NADH by LC-MS/MS analysis
T4 sequence (whole entry): T3 sequence (P14061 whole entry)

[11] = target: T4, 17-beta-hydroxysteroid dehydrogenase type 1 (Homo sapiens); settings: dose 50.0 nM, time 24.0 hrs
[12] = Cytotoxicity against human HEK293 cells assessed as cell growth inhibition at 20 uM measured at 48 hrs bt MTT assay relative to control; format: toxicity, cell-based
[13] = Stability in human T47D cells cultured in DMEM medium measured after 24 hrs by LC-MS/MS analysis; format: ADME, cell-based; settings: read-out: Stability
[14] = target: T4, 17-beta-hydroxysteroid dehydrogenase type 1 (Homo sapiens); settings: dose 50.0 nM, time 6.5 hrs
Description: Inhibition of human placental cytosolic fraction 17beta-HSD1 at 50 nM using [3H]-E1 as substrate in presence of NADH measured after 6.5 hrs by LC-MS/MS method

[15] = Stability of compound in phosphate buffer measured after 24 hrs by LC-MS/MS analysis; format: physicochemical; settings: read-out: Stability

IC50 (Steryl-sulfatase [1]) [nM]	IC50 [7] [µM]	IC50 [8] [nM]	IC50 [9] [nM]	Ratio IC50 (Homo sapiens)	SMILES	also measured
1100					Cc1cccnc1N(C)C(=O)c1ccc(-c2ccc(OS(N)(=O)=O)cc2)o1	
17					Cc1ccccc1N(C)C(=O)c1ccc(-c2ccc(OS(N)(=O)=O)c(F)c2)o1	intrinsic clearance [2]: 140 µL/min/mg; intrinsic clearance [3]: 16 µL/min/mg; half-life at 1 µM [4]: 6.1 min; IC50 (Steryl-sulfatase [5]): 17 nM; half-life at 1 µM [6]: 43 min
1100					Cc1ccccc1N(C)C(=O)c1nnc(-c2ccc(OS(N)(=O)=O)cc2)o1	
270					Cc1ncccc1N(C)C(=O)c1ccc(-c2ccc(OS(N)(=O)=O)cc2)o1	
60					Cc1ccccc1N(C)C(=O)c1coc(-c2ccc(OS(N)(=O)=O)cc2)n1	intrinsic clearance [2]: 15 µL/min/mg; intrinsic clearance [3]: 3.9 µL/min/mg; half-life at 1 µM [4]: 47 min; IC50 (Steryl-sulfatase [5]): 68 nM; half-life at 1 µM [6]: 180 min
27					Cc1c(F)cccc1N(C)C(=O)c1ccc(-c2ccc(OS(N)(=O)=O)cc2)o1	intrinsic clearance [2]: 150 µL/min/mg; intrinsic clearance [3]: 29 µL/min/mg; half-life at 1 µM [4]: 4.8 min; IC50 (Steryl-sulfatase [5]): 25 nM; half-life at 1 µM [6]: 21 min
570					Cc1cc(-c2ccc(C(=O)N(C)c3ccccc3C)o2)ccc1OS(N)(=O)=O	
27					Cc1ccccc1N(C)C(=O)c1ccc(-c2ccc(OS(N)(=O)=O)cc2Cl)o1	intrinsic clearance [2]: 39 µL/min/mg; intrinsic clearance [3]: 18 µL/min/mg; inhibition at 48 h, 20 µM [12]: 11.7%; half-life at 1 µM [4]: 20 min; IC50 (Steryl-sulfatase [5]): 29 nM; half-life at 1 µM [6]: 39 min
	> 10	110	250	> 40	Cc1ccccc1N(C)C(=O)c1coc(-c2ccc(O)cc2)n1	
40					Cc1ccc(F)cc1N(C)C(=O)c1ccc(-c2ccc(OS(N)(=O)=O)cc2)o1	intrinsic clearance [2]: 180 µL/min/mg; intrinsic clearance [3]: 21 µL/min/mg; half-life at 1 µM [4]: 3.9 min; half-life at 1 µM [6]: 34 min
150					Cc1cccc(F)c1N(C)C(=O)c1ccc(-c2ccc(OS(N)(=O)=O)cc2)o1	
130					Cc1ccccc1N(C)C(=O)c1cnc(-c2ccc(OS(N)(=O)=O)cc2)s1	
820					Cc1ccncc1N(C)C(=O)c1ccc(-c2ccc(OS(N)(=O)=O)cc2)o1	
	4.5	340	600	7.5	Cc1ccccc1N(C)C(=O)c1cnc(-c2ccc(O)cc2)s1	
	3.9	12	34	115	Cc1ccccc1N(C)C(=O)c1csc(-c2ccc(O)cc2)n1	
25					Cc1ccccc1N(C)C(=O)c1ccc(-c2ccc(OS(N)(=O)=O)c(Cl)c2)o1	intrinsic clearance [2]: 24 µL/min/mg; intrinsic clearance [3]: 15 µL/min/mg; inhibition at 48 h, 20 µM [12]: 55%; half-life at 1 µM [4]: 31 min; IC50 (Steryl-sulfatase [5]): 27 nM; half-life at 1 µM [6]: 48 min
28					Cc1ccccc1N(C)C(=O)c1ccc(-c2ccc(OS(N)(=O)=O)cc2)o1	intrinsic clearance [2]: 31 µL/min/mg; intrinsic clearance [3]: 15 µL/min/mg; inhibition at 48 h, 20 µM [12]: 11.7%; half-life at 1 µM [4]: 25 min; IC50 (Steryl-sulfatase [5]): 31 nM; half-life at 1 µM [6]: 47 min; remaining at 24 h [13]: 94%; inhibition [14]: 50%; remaining at 24 h [15]: 40%
14					Cc1cc(F)ccc1N(C)C(=O)c1ccc(-c2ccc(OS(N)(=O)=O)cc2)o1	intrinsic clearance [2]: 150 µL/min/mg; intrinsic clearance [3]: 16 µL/min/mg; half-life at 1 µM [4]: 4.6 min; IC50 (Steryl-sulfatase [5]): 15 nM; half-life at 1 µM [6]: 44 min
12					Cc1ccccc1N(C)C(=O)c1ccc(-c2ccc(OS(N)(=O)=O)cc2F)o1	intrinsic clearance [2]: 38 µL/min/mg; intrinsic clearance [3]: 14 µL/min/mg; half-life at 1 µM [4]: 23 min; IC50 (Steryl-sulfatase [5]): 16 nM; half-life at 1 µM [6]: 51 min
63					Cc1ccccc1N(C)C(=O)c1csc(-c2ccc(OS(N)(=O)=O)cc2)n1	intrinsic clearance [2]: 46 µL/min/mg; intrinsic clearance [3]: 14 µL/min/mg; half-life at 1 µM [4]: 15 min; IC50 (Steryl-sulfatase [5]): 60 nM; half-life at 1 µM [6]: 50 min
690					Cc1ccccc1N(C)C(=O)c1ccc(-c2cccc(OS(N)(=O)=O)c2)o1	

Further lines, the compound ahead of its results:

SMILES	IC50 (Steryl-sulfatase [1]) [nM]	IC50 [7] [µM]	IC50 [8] [nM]	IC50 [9] [nM]	Ratio IC50 (Homo sapiens)	also measured
Cc1ccc(F)cc1N(C)C(=O)c1ccc(-c2ccc(O)cc2)o1		2.2	12	41	54	
Cc1ccccc1N(C)C(=O)c1ccc(-c2ccc(O)cc2)o1			21		51	inhibition [10]: 50%; inhibition [11]: < 60%
Cc1cc(-c2ccc(C(=O)N(C)c3ccccc3C)o2)ccc1O			8.6		150	
Cc1ccccc1N(C)C(=O)c1ccc(-c2ccc(O)c(F)c2)o1			10	11	85	
Cc1cc(F)ccc1N(C)C(=O)c1ccc(-c2ccc(O)cc2)o1		1.7	7.6	23	74	
Cc1ccccc1N(C)C(=O)c1ccc(-c2ccc(O)cc2Cl)o1			14		13	
Cc1ccccc1N(C)C(=O)c1ccc(-c2ccccc2O)o1		> 10	1900	1900	> 5.2	
Cc1ncccc1N(C)C(=O)c1ccc(-c2ccc(O)cc2)o1		> 30	43	160	> 190	
Cc1ccccc1N(C)C(=O)c1nnc(-c2ccc(O)cc2)o1		6.2	320	490	13	
O=c1ccc2ccc(O)cc2o1 [UMBELLIFERONE]						intrinsic clearance [2]: 280 µL/min/mg; intrinsic clearance [3]: 140 µL/min/mg
Cc1ccncc1N(C)C(=O)c1ccc(-c2ccc(O)cc2)o1		> 20	64	260	> 77	
Cc1cccc(F)c1N(C)C(=O)c1ccc(-c2ccc(O)cc2)o1		3.2	120	310	10	
NS(=O)(=O)Oc1ccc2c3c(c(=O)oc2c1)CCCCC3 [IROSUSTAT]						half-life at 1 µM [4]: 3 min
Cc1cccnc1N(C)C(=O)c1ccc(-c2ccc(O)cc2)o1		> 10	1100	3300	> 3	
Cc1c(F)cccc1N(C)C(=O)c1ccc(-c2ccc(O)cc2)o1		3.9	50	170	23	
Cc1ccccc1N(C)C(=O)c1ccc(-c2ccc(O)cc2F)o1			10		42	
Cc1ccccc1N(C)C(=O)c1ccc(-c2cccc(O)c2)o1		2.8	29	150	19	
Cc1ccccc1N(C)C(=O)c1ccc(-c2ccc(O)c(Cl)c2)o1			52		74	inhibition at 48 h, 20 µM [12]: 55%
